Results as given in US20190330226A1, “POSITIVE ALLOSTERIC MODULATORS OF THE MUSCARINIC ACETYLCHOLINE RECEPTOR M1” (Vanderbilt University, priority 2018, published 2019).

Molecular target: T1, human mAChR M1 (Homo sapiens, UniProt P11229)
T1 construct: host or cells: CHO-K1 (ATCC), stably transfected using Lipofectamine 2000
T1 sequence (P11229 1-460): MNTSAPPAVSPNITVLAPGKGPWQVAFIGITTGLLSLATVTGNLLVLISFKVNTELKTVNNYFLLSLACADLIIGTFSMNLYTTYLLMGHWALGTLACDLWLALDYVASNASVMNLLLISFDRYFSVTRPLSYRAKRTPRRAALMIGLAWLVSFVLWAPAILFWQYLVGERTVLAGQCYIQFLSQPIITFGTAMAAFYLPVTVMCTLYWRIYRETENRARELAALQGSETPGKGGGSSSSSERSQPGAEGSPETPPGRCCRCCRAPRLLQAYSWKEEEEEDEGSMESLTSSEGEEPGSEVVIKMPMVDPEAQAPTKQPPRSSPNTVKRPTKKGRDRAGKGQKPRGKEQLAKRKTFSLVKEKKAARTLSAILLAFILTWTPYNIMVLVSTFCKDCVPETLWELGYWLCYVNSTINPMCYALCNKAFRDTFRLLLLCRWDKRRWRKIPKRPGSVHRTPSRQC
Assay: mAChR M1 cell-based functional assay (calcium mobilization, Fluo-4, FDSS)
Settings: CHO-K1 cells stably expressing hM1, calcium flux; for Emax: PAM mode with EC20 acetylcholine; for EC50: concentration-dependent increase in the EC20 acetylcholine response
Excerpt: Chinese hamster ovary (CHO-K1) cells stably expressing rat (r)M1 were purchased from the American Type Culture Collection and cultured according to their indicated protocol. CHO cells stably expressing human (h)M2, hM3, and hM5 were described previously (Levey, et al., 1991); hM1 and hM4 cDNAs were purchased from Missouri S&T cDNA Resource; rM4 cDNA was provided by T. I. Bonner (National Institutes of Health, Bethesda, Md.). rM2 and rM3 were cloned from a rat brain cDNA library and sequence verified. hM1, rM2, rM3, hM4, and rM4 cDNAs were used to stably transfect CHO-K1 cells purchased from the American Type Culture Collection using Lipofectamine 2000. To make stable rM2, hM2, rM3, hM4, and rM4 cell lines for use in calcium mobilization assays, these cells also were stably transfected with a chimeric G-protein (Gqi5) (provided by B. R. Conklin, University of California, San Francisco) using Lipofectamine 2000. rM1, hM1, rM3, hM3, rM5, and hM5 cells were grown in Ham's F-12 medium containing 10% heat-inactivated fetal bovine serum (FBS), 20 mM HEPES, and 50 µg/mL G418 sulfate. rM2-Gqi5, hM2-Gqi5, and hM4-Gqi5 cells were grown in the same medium also containing 500 μg/mL Hygromycin B. Stable rM4-Gqi5 cells were grown in DMEM containing 10% heat-inactivated FBS, 20 mM HEPES, 400 μg/mL G418 sulfate, and 500 μg/mL Hygromycin B.
For high throughput measurement of agonist-evoked increases in intracellular calcium, CHO-K1 cells stably expressing muscarinic receptors were plated in growth medium lacking G418 and hygromycin at 15,000 cells/20 μL/well in Greiner 384-well black-walled, tissue culture (TC)-treated, clear-bottom plates (VWR). Cells were incubated overnight at 37° C. and 5% CO2. The next day, cells were washed using an ELX 405 (BioTek) with four washes ([…]) of assay buffer then aspirated to 20 μL. Next, 20 μL of 16 μM Fluo-4/acetoxymethyl ester (Invitrogen, Carlsbad, Calif.) prepared as a 2.3 mM stock in DMSO and mixed in a 1:1 ratio with 10% (w/v) Pluronic F-127 and diluted in assay buffer was added to the wells and the cell plates were incubated for 50 min at 37° C. and 5% CO2. Dye was removed by washing with the ELX 405 (four 80 μL washes of assay buffer) then aspirated to 20 μL. Compound master plates were formatted in an 11 point CRC format (1:3 dilutions) in 100% DMSO with a starting concentration of 10 mM using the BRAVO liquid handler (Agilent). Test compound CRCs were then transferred to daughter plates (240 nL) using the Echo acoustic plate reformatter (Labcyte, Sunnyvale, Calif.) and then diluted into assay buffer (40 μL) to a 2× stock using a Thermo Fisher Combi (Thermo Fisher Scientific, Waltham, Mass.).
Calcium flux was measured using the Functional Drug Screening System (FDSS) 6000 (Hamamatsu Corporation, Tokyo, Japan) as an increase in the fluorescent static ratio. Compounds were applied to cells (20 μL, 2×) using the automated system of the FDSS 6000 at 4 s into the 300 s protocol and the data were collected at 1 Hz. At 144 s into the 300s protocol, 10 μL of an EC20 concentration of the muscarinic receptor agonist acetylcholine was added (5×), followed by the addition of 12 μL an EC80 concentration of acetylcholine at the 230 s time point (5×). Agonist activity was analyzed as a concentration-dependent increase in calcium mobilization upon compound addition. Positive allosteric modulator activity was analyzed as a concentration-dependent increase in the EC20 acetylcholine response. Antagonist activity was analyzed as a concentration-dependent decrease in the EC80 acetylcholine response. Concentration-response curves were generated using a four-parameter logistical equation in XLfit curve fitting software (IDBS, Bridgewater, N.J.) for Excel (Microsoft, Redmond, Wash.) or Prism (GraphPad Software, Inc., San Diego, Calif.).
Activity (EC50 and Emax) was determined in the mAChR M1 cell-based functional assay as described above and the data are shown in Table 2. […]

Emax | EC50 | Compound
84% | 1590 nM | Cn1cc2c(-c3cc(F)c(CN4Cc5sccc5C4=O)c(F)c3)cccc2n1 [Compound 1, 5-(2,6-difluoro-4-(2-methyl-2H-indazol-4-yl)benzyl)-5,6-dihydro-4H-thieno[2,3-c]pyrrol-4-one]
70% | 1260 nM | Cn1cc2c(-c3cc(F)c(CN4Cc5ccsc5C4=O)c(F)c3)cccc2n1 [Compound 2, 5-(2,6-difluoro-4-(2-methyl-2H-indazol-4-yl)benzyl)-4,5-dihydro-6H-thieno[2,3-c]pyrrol-6-one]
78% |  | Cn1cc2c(-c3cc(F)c(CN4Cc5nc[nH]c5C4=O)c(F)c3)cccc2n1 [Compound 3, 5-(2,6-difluoro-4-(2-methyl-2H-indazol-4-yl)benzyl)-5,6-dihydropyrrolo[3,4-d]imidazol-4(3H)-one]
36% | 1880 nM | Cn1cc2c(-c3cc(F)c(CN4Cc5ccn(C)c5C4=O)c(F)c3)cccc2n1 [Compound 4, 5-(2,6-difluoro-4-(2-methyl-2H-indazol-4-yl)benzyl)-1-methyl-4,5-dihydropyrrolo[3,4-b]pyrrol-6(1H)-one]
73% |  | Cn1cc2c(-c3cc(F)c(CN4Cc5ncsc5C4=O)c(F)c3)cccc2n1 [Compound 5, 5-(2,6-difluoro-4-(2-methyl-2H-indazol-4-yl)benzyl)-4,5-dihydro-6H-pyrrolo[3,4-d]thiazol-6-one]
63% |  | Cn1cc2c(-c3cc(F)c(CN4Cc5cnn(Cc6ccccn6)c5C4=O)c(F)c3)cccc2n1 [Compound 6, 5-(2,6-Difluoro-4-(2-methyl-2H-indazol-4-yl)benzyl)-1-(pyridin-2-ylmethyl)-4,5-dihydropyrrolo[3,4-c]pyrazol-6(1H)-one]
45% | 4370 nM | COc1ccc(Cn2ncc3c2C(=O)N(Cc2c(F)cc(-c4cccc5nn(C)cc45)cc2F)C3)cc1 [Compound 6.1, 5-(2,6-difluoro-4-(2-methyl-2H-indazol-4-yl)benzyl)-1-(4-methoxybenzyl)-4,5-dihydropyrrolo[3,4-c]pyrazol-6(1H)-one]
87% |  | Cn1cc2c(-c3cc(F)c(CN4Cc5cn[nH]c5C4=O)c(F)c3)cccc2n1 [Compound 6.2, 5-(2,6-difluoro-4-(2-methyl-2H-indazol-4-yl)benzyl)-4,5-dihydropyrrolo[3,4-c]pyrazol-6(1H)-one]
46% |  | Cn1cc2c(-c3cc(F)c(CN4Cc5cn(Cc6ccccn6)nc5C4=O)c(F)c3)cccc2n1 [Compound 7, 5-(2,6-difluoro-4-(2-methyl-2H-indazol-4-yl)benzyl)-2-(pyridin-2-ylmethyl)-4,5-dihydropyrrolo[3,4-c]pyrazol-6(2H)-one]
33% | 3850 nM | Cn1cc2cc(-c3cc(F)c(CN4Cc5ccn(CC6CCCO6)c5C4=O)c(F)c3)ccc2n1 (stereo not shown) [Compound 8, 5-(2,6-difluoro-4-(2-methyl-2H-indazol-5-yl)benzyl)-1-((tetrahydrofuran-2-yl)methyl)-4,5-dihydropyrrolo[3,4-b]pyrrol-6(1H)-one]
36% | 1880 nM | Cn1cc2c(-c3cc(F)c(CN4Cc5cc[nH]c5C4=O)c(F)c3)cccc2n1 [Compound 9, 5-(2,6-difluoro-4-(2-methyl-2H-indazol-4-yl)benzyl)-4,5-dihydropyrrolo[3,4-b]pyrrol-6(1H)-one]
59% |  | CCCn1ccc2c1C(=O)N(Cc1c(F)cc(-c3cccc4nn(C)cc34)cc1F)C2 [Compound 10, 5-(2,6-difluoro-4-(2-methyl-2H-indazol-4-yl)benzyl)-1-propyl-4,5-dihydropyrrolo[3,4-b]pyrrol-6(1H)-one]
57% | 2920 nM | Cn1cc2c(-c3cc(F)c(CN4Cc5ccn(CCN6CCCC6)c5C4=O)c(F)c3)cccc2n1 [Compound 11, 5-(2,6-difluoro-4-(2-methyl-2H-indazol-4-yl)benzyl)-1-(2-(pyrrolidin-1-yl)ethyl)-4,5-dihydropyrrolo[3,4-b]pyrrol-6(1H)-one]
47% |  | Cn1cc(-c2ccc(CN3Cc4ncsc4C3=O)c(F)c2)cn1 [Compound 12, 5-(2-fluoro-4-(1-methyl-1H-pyrazol-4-yl)benzyl)-4,5-dihydro-6H-pyrrolo[3,4-d]thiazol-6-one]
51% | 1850 nM | Cn1cc2cc(-c3ccc(CN4Cc5ncsc5C4=O)c(F)c3)ccc2n1 [Compound 13, 5-(2-fluoro-4-(2-methyl-2H-indazol-5-yl)benzyl)-4,5-dihydro-6H-pyrrolo[3,4-d]thiazol-6-one]
40% |  | Cn1cc(-c2cc(F)c(CN3Cc4ncsc4C3=O)c(F)c2)cn1 [Compound 14, 5-(2,6-difluoro-4-(1-methyl-1H-pyrazol-4-yl)benzyl)-4,5-dihydro-6H-pyrrolo[3,4-d]thiazol-6-one]
55% |  | O=C1c2scnc2CN1Cc1c(F)cc(-c2ccc3nccn3c2)cc1F [Compound 15, 5-(2,6-difluoro-4-(imidazo[1,2-a]pyridin-6-yl)benzyl)-4,5-dihydro-6H-pyrrolo[3,4-d]thiazol-6-one]
93% | 920 nM | Cn1cc2c(-c3cc(F)c(CN4Cc5cnn(CC6CCCO6)c5C4=O)c(F)c3)cccc2n1 (stereo not shown) [Compound 16, 5-(2,6-difluoro-4-(2-methyl-2H-indazol-4-yl)benzyl)-1-((tetrahydrofuran-2-yl)methyl)-4,5-dihydropyrrolo[3,4-c]pyrazol-6(1H)-one]
58% | 3410 nM | Cn1cc2c(-c3cc(F)c(CN4Cc5cn(CC6CCCO6)nc5C4=O)c(F)c3)cccc2n1 (stereo not shown) [Compound 17, 5-(2,6-difluoro-4-(2-methyl-2H-indazol-4-yl)benzyl)-2-((tetrahydrofuran-2-yl)methyl)-4,5-dihydropyrrolo[3,4-c]pyrazol-6(2H)-one]
87% | 3100 nM | COCCn1ncc2c1C(=O)N(Cc1c(F)cc(-c3cccc4nn(C)cc34)cc1F)C2 [Compound 18, 5-(2,6-difluoro-4-(2-methyl-2H-indazol-4-yl)benzyl)-1-(2-methoxyethyl)-4,5-dihydropyrrolo[3,4-c]pyrazol-6(1H)-one]
45% |  | COCCn1cc2c(n1)C(=O)N(Cc1c(F)cc(-c3cccc4nn(C)cc34)cc1F)C2 [Compound 19, 5-(2,6-difluoro-4-(2-methyl-2H-indazol-4-yl)benzyl)-2-(2-methoxyethyl)-4,5-dihydropyrrolo[3,4-c]pyrazol-6(2H)-one]
91% | 730 nM | Cn1cc2c(-c3cc(F)c(CN4Cc5cnn(CCN6CCCC6)c5C4=O)c(F)c3)cccc2n1 [Compound 20, 5-(2,6-difluoro-4-(2-methyl-2H-indazol-4-yl)benzyl)-1-(2-(pyrrolidin-1-yl)ethyl)-4,5-dihydropyrrolo[3,4-c]pyrazol-6(1H)-one]
